Measurements reported in ChEMBL document CHEMBL1614632, “Trend analysis of a database of intravenous pharmacokinetic parameters in humans for 670 drug compounds” (Drug Metab Dispos, 2008).

Assays:
clinical [1] = settings: human, in vivo, iv
clinical [2] = settings: human, in vivo, iv, t1/2
clinical [3] = settings: human, in vivo, iv, CL
clinical [4] = settings: human, in vivo, iv, Vdss

| Structure (SMILES) | MRT (clinical [1]) [h] | half-life (clinical [2]) [h] | clearance (clinical [3]) [mL/min/kg] | Vd (clinical [4]) [L/kg] |
| --- | --- | --- | --- | --- |
| CCCc1nc2c(C)cc(-c3nc4ccccc4n3C)cc2n1Cc1ccc(-c2ccccc2C(=O)O)cc1 | 11 | 20 | 8.4 | 5.3 |
| C=CC[N+]12CC[C@@]34c5ccccc5N5/C=C6/[C@H]7C[C@H]8[C@@]9(CC[N@@+]8(CC=C)C/C7=C/CO)c7ccccc7N(/C=C(/[C@@H](C[C@@H]31)/C(=C\CO)C2)[C@H]54)[C@@H]69 (some centres not stated) | 4.1 | 3.6 | 1.3 | 0.32 |
| CNS(=O)(=O)CCc1ccc2[nH]cc(C3CCN(C)CC3)c2c1 | 6.1 | 6.6 | 6.6 | 2.4 |
| CNS(=O)(=O)Cc1ccc2[nH]cc(CCN(C)C)c2c1 | 1.5 | 1.7 | 19 | 1.7 |
| CN(C)CCN(Cc1cccs1)c1ccccn1 | 2 | 1.6 | 28 | 3.3 |
| C[C@@H]1CC2=CC(=O)CC[C@]2(C)[C@H]2CC[C@@]3(C)[C@@H](CC[C@@H]3O)[C@]12C | 0.67 | 0.65 | 20 | 0.8 |
| CN1C(=O)[C@H](O)C[C@H]1c1cccnc1 | 7.9 | 5.9 | 1.8 | 0.85 |
| Cn1cc(NC(=O)Nc2cc(C(=O)Nc3cc(C(=O)Nc4ccc5cc(S(=O)(=O)O)cc(S(=O)(=O)O)c5c4)n(C)c3)n(C)c2)cc1C(=O)Nc1cc(C(=O)Nc2ccc3cc(S(=O)(=O)O)cc(S(=O)(=O)O)c3c2)n(C)c1 | 960 | 730 | 0.0047 | 0.27 |
| C#C[C@]1(OS(=O)(=O)O)CC[C@H]2[C@@H]3CCc4cc(O)ccc4[C@H]3CC[C@@]21C | 7.8 | 9.3 | 1.3 | 0.61 |
| NCCCNc1ccc2c(CNCCO)nn3c4c(O)ccc(O)c4c(=O)c1c23 | 11 | 32 | 18 | 12 |
| COc1cc(CC(=O)NCC(=O)N(CCC(=O)O)Cc2ccc(OC)c(OC)c2)ccc1NC(=O)Nc1ccccc1C | 0.38 | 1.6 | 11 | 0.25 |
| CC(C)(C)[C@H](NC(=O)[C@H](CC1CCCC1)CN(O)C=O)C(=O)N1CCN(Cc2ccc3c(c2)OCO3)CC1 | 5.9 | 9.4 | 3.1 | 1.1 |
| C[C@H](N[C@@H](CCc1ccccc1)C(=O)O)C(=O)N1Cc2ccccc2C[C@H]1C(=O)O | 2.3 | 2.3 | 0.93 | 0.13 |
| Cc1nnc(SCC2=C(C(=O)O)N3C(=O)[C@@H](NC(=O)[C@H](O)c4ccccc4)[C@H]3SC2)s1 | 0.83 | 1 | 2.6 | 0.13 |
| CCN1C[C@H]2CN(C)C[C@H](C1)C2OC(=O)c1ccc(Cl)cc1 (some centres not stated) | 8.8 | 8.6 | 17 | 9 |
| N=C(N)c1ccc(CNC(=O)[C@@H]2CCN2C(=O)[C@H](NCC(=O)O)C2CCCCC2)cc1 | 2 | 1.6 | 1.9 | 0.23 |
| COc1ccccc1N1CCN(CCCNc2cc(=O)n(C)c(=O)n2C)CC1 | 4 | 3.5 | 3.1 | 0.75 |
| CC(=N)N1CC[C@H](SC2=C(C(=O)O)N3C(=O)[C@H]([C@@H](C)O)[C@H]3C2)C1 | 1.2 | 0.96 | 2.6 | 0.19 |
| CN(C)/N=N/c1ccc(C(=O)O)cc1 | 3 | 2.5 | 1.3 | 0.25 |
| CCC1=C[C@@H]2CN(C1)Cc1c([nH]c3ccccc13)[C@@](C(=O)OC)(c1cc3c(cc1OC)N(C)[C@H]1[C@@](O)(C(=O)OC)[C@H](OC(C)=O)[C@]4(CC)C=CCN5CC[C@]31[C@@H]54)C2 (stereo in doubt; form 1) [VINORELBINE] | 17 | 18 | 12 | 12 |
| COc1cc2c(cc1OC)CN(c1cc(N)c3cc(OC)c(OC)cc3n1)CC2 [ABANOQUIL] | 7.6 | 5.9 | 14 | 6.3 |
| C[C@H]1O[C@H](O[C@H]2[C@H](O)[C@@H](O)[C@@H](O[C@H]3[C@H](O)[C@@H](O)C(O)O[C@@H]3CO)O[C@@H]2CO)[C@H](O)[C@@H](O)[C@@H]1N[C@H]1C=C(CO)[C@@H](O)[C@H](O)[C@H]1O (some centres not stated) [ACARBOSE] | 2.4 | 2.7 | 2.2 | 0.32 |
| N[C@H](C(=O)O)[C@@H]1CC(Cl)=NO1 [ACIVICIN] | 12 | 9.9 | 0.69 | 0.5 |
| CC(C)NCC(O)COc1ccc(COCCOC(C)C)cc1 (configuration not stated) [BISOPROLOL] |  | 10 | 3.7 | 2.4 |
| COC(=O)O[C@@]12CO[C@@H]1C[C@H](O)[C@@]1(C)C(=O)[C@H](OC(C)=O)C3=C(C)[C@@H](OC(=O)[C@H](O)[C@@H](NC(=O)c4ccccc4)c4ccccc4)C[C@@](O)([C@@H](OC(=O)c4ccccc4)[C@H]21)C3(C)C [BMS-188797] | 13 |  | 8.6 | 6.9 |
| C=CC1=C(C(=O)O)N2C(=O)[C@@H](NC(=O)/C(=N\OCC(=O)O)c3csc(N)n3)[C@H]2SC1 [CEFIXIME] |  | 3.2 | 1 | 0.24 |
| O=C(N[C@H](CO)[C@H](O)c1ccc([N+](=O)[O-])cc1)C(Cl)Cl [CHLORAMPHENICOL] | 6.5 | 4.6 | 2.4 |  |

| Structure (SMILES) | MRT (clinical [1]) [h] | half-life (clinical [2]) [h] | clearance (clinical [3]) [mL/min/kg] | Vd (clinical [4]) [L/kg] |
| --- | --- | --- | --- | --- |
| CN(C)CCC(c1ccc(Cl)cc1)c1ccccn1 (configuration not stated) [CHLORPHENIRAMINE] | 22 |  | 2.5 | 3.3 |
| CN(C)CCCC1(c2ccc(F)cc2)OCc2cc(C#N)ccc21 (configuration not stated) [CITALOPRAM] | 47 | 33 | 4.3 |  |
| CN(C)CCCN1c2ccccc2CCc2ccc(Cl)cc21 [CLOMIPRAMINE] | 26 |  | 8.2 | 13 |
| O=c1[nH]cnc2c1ncn2[C@H]1CC[C@@H](CO)O1 [DIDANOSINE] | 1.2 | 1.4 | 11 |  |
| C[C@H](CCc1ccccc1)NC[C@H](O)c1ccc(O)c(C(N)=O)c1 [DILEVALOL] | 2.8 | 3.3 | 29 |  |
| O=c1[nH]c2ccccc2n1CCCN1CCC(n2c(=O)[nH]c3cc(Cl)ccc32)CC1 [DOMPERIDONE] | 6 |  | 9.5 | 3.4 |
| CCN(CC)C(=O)/C(C#N)=C/c1cc(O)c(O)c([N+](=O)[O-])c1 [ENTACAPONE] | 0.38 |  | 12 | 0.27 |
| C[C@]12CC[C@@H]3c4ccc(O)cc4CC[C@H]3[C@@H]1CC[C@@H]2O [ESTRADIOL] | 0.7 | 1.7 | 30 |  |
| CCOC(=O)c1ncn2c1CN(C)C(=O)c1cc(F)ccc1-2 [FLUMAZENIL] | 1 | 0.78 | 16 |  |
| O=C(O)P(=O)(O)O [FOSCARNET] |  | 4.7 | 2.1 | 0.5 |
| NCC1(CC(=O)O)CCCCC1 [GABAPENTIN] | 7 |  | 1.7 | 0.71 |
| CCC1=C(C)CN(C(=O)NCCc2ccc(S(=O)(=O)NC(=O)N[C@H]3CC[C@H](C)CC3)cc2)C1=O [GLIMEPIRIDE] |  | 9.95 | 0.5 | 0.19 |
| C[C@@H](O)[C@H]1C(=O)N2C(C(=O)O)=C(SCCN=CN)C[C@H]12 [IMIPENEM ANHYDROUS] | 1.3 | 0.95 | 3 |  |
| CCC(C)n1ncn(-c2ccc(N3CCN(c4ccc(OCC5COC(Cn6cncn6)(c6ccc(Cl)cc6Cl)O5)cc4)CC3)cc2)c1=O (configuration not stated) [ITRACONAZOLE] |  | 25 | 5.1 | 7.4 |
| O=C1Nc2ccc(Cl)cc2C(c2ccccc2Cl)=NC1O (configuration not stated) [LORAZEPAM] | 22 | 17 | 1 |  |
| CN(Cc1cnc2nc(N)nc(N)c2n1)c1ccc(C(=O)N[C@@H](CCC(=O)O)C(=O)O)cc1 [METHOTREXATE] | 3.4 |  | 2.1 | 0.43 |
| Cc1ncc2n1-c1ccc(Cl)cc1C(c1ccccc1F)=NC2 [MIDAZOLAM] | 3.5 | 3.1 | 5.3 |  |
| CN1CCN2c3ncccc3Cc3ccccc3C2C1 (configuration not stated) [MIRTAZAPINE] | 8.8 |  | 8 | 4.2 |
| CCc1nn(CCCN2CCN(c3cccc(Cl)c3)CC2)c(=O)n1CCOc1ccccc1 [NEFAZODONE] | 1.1 | 1.2 | 7.5 |  |
| CN1CCC[C@H]1c1cccnc1 [NICOTINE] | 2.4 | 2 | 18 |  |
| CC[C@H](C)C(=O)O[C@H]1C[C@H](O)C=C2C=C[C@H](C)[C@H](CC[C@@H](O)C[C@@H](O)CC(=O)O)[C@H]21 [PRAVASTATIN] |  | 0.78 | 14 | 0.46 |
| CO[C@H]1/C=C/O[C@@]2(C)Oc3c(C)c(O)c4c(O)c(c(/C=N/N5CCN(C)CC5)c(O)c4c3C2=O)NC(=O)/C(C)=C\C=C\[C@H](C)[C@H](O)[C@@H](C)[C@@H](O)[C@@H](C)[C@H](OC(C)=O)[C@@H]1C [RIFAMPIN] | 4.6 |  | 3.5 | 0.97 |
| C/C=C1\NC(=O)[C@H]2CSSCC/C=C/[C@H](CC(=O)N[C@H](C(C)C)C(=O)N2)OC(=O)[C@H](C(C)C)NC1=O [ROMIDEPSIN] | 2.6 | 11 | 7.4 |  |
| CN1C(C(=O)Nc2ccccn2)=C(O)c2sccc2S1(=O)=O [TENOXICAM] | 92 | 67 | 0.03 |  |
| CCCC(CCC)C(=O)O [VALPROIC ACID] |  | 12 | 0.16 | 0.14 |
| COc1ccc(C(CN(C)C)C2(O)CCCCC2)cc1 (configuration not stated) [VENLAFAXINE] | 5.2 | 5 | 14 |  |
